# Measured values published in the supplement of paper PMC11061612.
# What was measured:
# Test in all cases: combination Emax (second highest fraction inhibited in the dose matrix, 72 h); higher = more inhibition; extreme values may be limits of the assay
# [1] = test system: NCI-H226 (Mesothelioma)
# Summary of the method: (§1)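 Bliss excess equals the observed combination effect minus the expected value EA + EB − EA·EB, where EA and EB are the effects of each agent alone. Combination Emax is the second-highest inhibition within the matrix. Inhibition was scaled from CellTiter-Glo 2.0 luminescence, with 0 set by vehicle wells and 1 by blank wells, after 72 hours of two-drug dosing of cells plated in 1536-well plates.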
# [2] = test system: PA-TU-8988T (Pancreatic Carcinoma)
# Summary of the method: as §1
# [3] = test system: OAW-28 (Ovarian Carcinoma)
# Summary of the method: as §1
# [4] = test system: SAT (Head and Neck Carcinoma)
# Summary of the method: as §1
# [5] = test system: P32-ISH (Burkitt's Lymphoma)
# Summary of the method: as §1
# [6] = test system: COR-L88 (Small Cell Lung Carcinoma)
# Summary of the method: as §1
# [7] = test system: DBTRG-05MG (Glioblastoma)
# Summary of the method: as §1
# [8] = test system: MOLT-13 (T-Lymphoblastic Leukemia)
# Summary of the method: as §1
# [9] = test system: UACC-257 (Melanoma)
# Summary of the method: as §1
# [10] = test system: ES6 (Ewing's Sarcoma)
# Summary of the method: as §1
# [11] = test system: NCI-H1876 (Small Cell Lung Carcinoma)
# Summary of the method: as §1
# [12] = test system: NCI-H1963 (Small Cell Lung Carcinoma)
# Summary of the method: as §1
# [13] = test system: NMC-G1 (Low Grade Glioma)
# Summary of the method: as §1
# [14] = test system: CPC-N (Small Cell Lung Carcinoma)
# Summary of the method: as §1
# [15] = test system: MDA-MB-415 (Breast Carcinoma)
# Summary of the method: as §1
# [16] = test system: SUP-M2 (T-Cell Non-Hodgkin's Lymphoma)
# Summary of the method: as §1
# [17] = test system: CL-11 (Colorectal Carcinoma)
# Summary of the method: as §1
# [18] = test system: SNU-C2B (Colorectal Carcinoma)
# Summary of the method: as §1
# [19] = test system: P30-OHK (B-Lymphoblastic Leukemia)
# Summary of the method: as §1
# [20] = test system: SNU-407 (Colorectal Carcinoma)
# Summary of the method: as §1
Compound,combination Emax [1],combination Emax [2],combination Emax [3],combination Emax [4],combination Emax [5],combination Emax [6],combination Emax [7],combination Emax [8],combination Emax [9],combination Emax [10],combination Emax [11],combination Emax [12],combination Emax [13],combination Emax [14],combination Emax [15],combination Emax [16],combination Emax [17],combination Emax [18],combination Emax [19],combination Emax [20]
"CCN(CCO)CCCOc1ccc2c(Nc3cc(CC(=O)Nc4cccc(F)c4)[nH]n3)ncnc2c1 [AZD2811] + C[C@@H]1COCCN1C2=NC(=NC(=C2)C3(CC3)[S@](=N)(=O)C)C4=C5C=CNC5=NC=C4 [AZD6738] (first compound max 1 µM, 7x7, partner max 10 µM)",0.233,0.35,0.396,0.276,0.992,0.615,0.236,0.993,0.16,0.6,0.963,0.887,0.372,0.961,0.498,0.999,0.777,0.655,0.928,0.658
"CCN(CCO)CCCOc1ccc2c(Nc3cc(CC(=O)Nc4cccc(F)c4)[nH]n3)ncnc2c1 [AZD2811] + O=C(c1cc(Cc2n[nH]c(=O)c3ccccc23)ccc1F)N1CCN(C(=O)C2CC2)CC1 [Olaparib] (first compound max 1 µM, 7x7, partner max 10 µM)",0.236,0.208,0.213,0.215,0.946,0.295,0.242,0.997,0.237,0.249,0.821,0.856,0.318,0.807,0.225,0.975,0.202,0.269,0.848,0.306
"CN(CCO)CC[C@H](CSc1ccccc1)Nc1ccc(S(=O)(=O)NC(=O)c2ccc(N3CCC([C@@H](O)c4ccccc4-c4ccc(Cl)cc4)CC3)cc2)cc1S(=O)(=O)C(F)(F)F [AZD4320] + C1CN(CCC1(C(=O)N[C@@H](CCO)C2=CC=C(C=C2)Cl)N)C3=NC=NC4=C3C=CN4 [Capivasertib] (first compound max 1 µM, 7x7, partner max 3 µM)",0.227,0.22,0.899,0.418,0.318,0.971,0.619,0.913,0.1,0.291,0.955,1,0.507,0.945,0.968,0.365,0.147,0.201,0.992,0.362
"CN(CCO)CC[C@H](CSc1ccccc1)Nc1ccc(S(=O)(=O)NC(=O)c2ccc(N3CCC([C@@H](O)c4ccccc4-c4ccc(Cl)cc4)CC3)cc2)cc1S(=O)(=O)C(F)(F)F [AZD4320] + C=CCn1c(=O)c2cnc(Nc3ccc(N4CCN(C)CC4)cc3)nc2n1-c1cccc(C(C)(C)O)n1 [AZD1775] (first compound max 1 µM, partner max 1 µM)",0.407,0.922,0.966,0.708,0.994,0.978,0.92,1,0.103,0.572,1,1,0.785,0.997,0.665,1,0.507,0.79,1,0.415
"CN(CCO)CC[C@H](CSc1ccccc1)Nc1ccc(S(=O)(=O)NC(=O)c2ccc(N3CCC([C@@H](O)c4ccccc4-c4ccc(Cl)cc4)CC3)cc2)cc1S(=O)(=O)C(F)(F)F [AZD4320] + CCN(CCO)CCCOc1ccc2c(Nc3cc(CC(=O)Nc4cccc(F)c4)[nH]n3)ncnc2c1 [AZD2811] (first compound max 1 µM, 7x7, partner max 1 µM)",0.49,0.398,0.958,0.375,0.915,0.974,0.775,1,0.161,0.161,0.998,1,0.718,0.971,0.619,0.979,0.0894,0.168,1,0.411
"CN(CCO)CC[C@H](CSc1ccccc1)Nc1ccc(S(=O)(=O)NC(=O)c2ccc(N3CCC([C@@H](O)c4ccccc4-c4ccc(Cl)cc4)CC3)cc2)cc1S(=O)(=O)C(F)(F)F [AZD4320] + CN(C)CCCOc1ccc(-c2ccc3ncc4c(c3c2)n(C2CCOCC2)c(=O)n4C)cn1 [AZD0156] (first compound max 1 µM, 7x7, partner max 1 µM)",0.224,0.183,0.912,0.193,0.17,0.957,0.745,0.949,0.141,0.188,0.982,1,0.756,0.967,0.636,0.388,0.144,0.208,0.987,0.0943
"CN(CCO)CC[C@H](CSc1ccccc1)Nc1ccc(S(=O)(=O)NC(=O)c2ccc(N3CCC([C@@H](O)c4ccccc4-c4ccc(Cl)cc4)CC3)cc2)cc1S(=O)(=O)C(F)(F)F [AZD4320] + C[C@@H]1COCCN1C2=NC(=NC(=C2)C3(CC3)[S@](=N)(=O)C)C4=C5C=CNC5=NC=C4 [AZD6738] (first compound max 1 µM, 7x7, partner max 10 µM)",0.193,0.319,0.957,0.587,0.896,0.992,0.834,1,0.186,0.665,1,1,0.876,1,0.879,0.998,0.895,0.636,1,0.709
"CN(CCO)CC[C@H](CSc1ccccc1)Nc1ccc(S(=O)(=O)NC(=O)c2ccc(N3CCC([C@@H](O)c4ccccc4-c4ccc(Cl)cc4)CC3)cc2)cc1S(=O)(=O)C(F)(F)F [AZD4320] + C[C@@H](Nc1cc(F)cc(F)c1)c1cc(C(=O)N(C)C)cc2c(=O)cc(N3CCOCC3)oc12 [AZD8186] (first compound max 1 µM, 7x7, partner max 3 µM)",0.279,0.437,0.991,0.446,0.782,0.966,0.935,0.996,0.269,0.463,1,1,0.814,0.95,0.909,0.944,0.378,0.374,0.979,0.311
"CN(CCO)CC[C@H](CSc1ccccc1)Nc1ccc(S(=O)(=O)NC(=O)c2ccc(N3CCC([C@@H](O)c4ccccc4-c4ccc(Cl)cc4)CC3)cc2)cc1S(=O)(=O)C(F)(F)F [AZD4320] + Cc1cc2ncnn2cc1Nc1ncc2c(n1)n(C1CCOCC1)c(=O)n2C [AZD7648] (first compound max 1 µM, 7x7, partner max 10 µM)",0.0544,0.23,0.899,0.305,0.193,0.964,0.827,0.951,0.122,0.268,0.925,1,0.759,0.984,0.749,0.47,0.126,0.191,0.982,0.721
"CN(CCO)CC[C@H](CSc1ccccc1)Nc1ccc(S(=O)(=O)NC(=O)c2ccc(N3CCC([C@@H](O)c4ccccc4-c4ccc(Cl)cc4)CC3)cc2)cc1S(=O)(=O)C(F)(F)F [AZD4320] + Cn1cnc2c(F)c(Nc3ccc(Br)cc3Cl)c(C(=O)NOCCO)cc21 [Selumetinib] (first compound max 1 µM, 7x7, partner max 3 µM)",0.204,0.379,0.984,0.591,0.801,0.959,0.702,1,0.838,0.449,1,1,0.55,0.955,0.583,0.959,0.811,0.422,0.99,0.57
"Cc1c2c(nn1C)CSCc1cc(n(C)n1)CSc1cc(c3ccccc3c1)OCCCc1c(C(=O)O)n(C)c3c-2c(Cl)ccc13 [AZD5991] + C1CN(CCC1(C(=O)N[C@@H](CCO)C2=CC=C(C=C2)Cl)N)C3=NC=NC4=C3C=CN4 [Capivasertib] (first compound max 1 µM, 7x7, partner max 3 µM)",0.2,0.34,0.224,0.738,1,0.259,0.199,1,0.252,0.281,0.673,0.43,0.214,0.338,0.801,1,0.133,0.135,0.71,0.774
